The source made the active and inactive calls.
Legend:
Vero = test: cells; type: functional; conditions: Chlorocebus sabaeus
[1] = biological target: T1, RNA-binding protein pos-1 (Caenorhabditis elegans, UniProt G5EF15); test: disruptors of C. elegans POS-1 RNA interaction – biochemical, fluorescence polarization, dose response (AID 1964);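 also: purified POS-1 fused to maltose binding protein made in E. coli; potency of compounds blocking POS-1 binding to fluorescent RNA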
T1 sequence (G5EF15 whole entry): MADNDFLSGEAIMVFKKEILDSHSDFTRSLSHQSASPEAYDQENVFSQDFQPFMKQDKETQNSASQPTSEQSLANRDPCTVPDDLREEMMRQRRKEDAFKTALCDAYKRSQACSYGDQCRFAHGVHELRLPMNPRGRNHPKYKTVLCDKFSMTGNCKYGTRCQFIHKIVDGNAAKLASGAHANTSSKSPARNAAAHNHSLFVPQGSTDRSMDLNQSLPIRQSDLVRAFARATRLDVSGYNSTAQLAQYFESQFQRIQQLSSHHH

[2] = biological target: T2, Zinc finger protein mex-5 (Caenorhabditis elegans, UniProt Q9XUB2); test: potency of MEX-5 RNA-binding blockers – biochemical, C. elegans, fluorescence polarization, dose response (AID 1960)
T2 sequence (Q9XUB2 whole entry): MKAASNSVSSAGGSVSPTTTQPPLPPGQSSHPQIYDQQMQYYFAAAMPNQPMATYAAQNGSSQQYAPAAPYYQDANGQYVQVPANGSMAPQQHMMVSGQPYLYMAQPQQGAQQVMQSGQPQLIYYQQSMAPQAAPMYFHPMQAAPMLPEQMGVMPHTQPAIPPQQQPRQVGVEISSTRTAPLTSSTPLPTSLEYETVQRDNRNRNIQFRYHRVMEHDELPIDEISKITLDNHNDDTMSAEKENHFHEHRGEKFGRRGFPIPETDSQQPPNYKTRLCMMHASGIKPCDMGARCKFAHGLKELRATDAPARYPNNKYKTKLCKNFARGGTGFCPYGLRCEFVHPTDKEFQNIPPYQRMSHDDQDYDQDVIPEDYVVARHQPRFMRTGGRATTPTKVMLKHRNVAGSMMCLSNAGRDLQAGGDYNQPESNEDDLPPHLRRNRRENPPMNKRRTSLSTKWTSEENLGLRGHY

[3] = biological target: T3, High affinity choline transporter 1 (Homo sapiens, UniProt Q9GZV3); test: human choline transporter blockers, potency – cell-based, 5-point CRC, membrane potential dye, dose response (AID 504840); type: functional
T3 sequence (Q9GZV3 whole entry): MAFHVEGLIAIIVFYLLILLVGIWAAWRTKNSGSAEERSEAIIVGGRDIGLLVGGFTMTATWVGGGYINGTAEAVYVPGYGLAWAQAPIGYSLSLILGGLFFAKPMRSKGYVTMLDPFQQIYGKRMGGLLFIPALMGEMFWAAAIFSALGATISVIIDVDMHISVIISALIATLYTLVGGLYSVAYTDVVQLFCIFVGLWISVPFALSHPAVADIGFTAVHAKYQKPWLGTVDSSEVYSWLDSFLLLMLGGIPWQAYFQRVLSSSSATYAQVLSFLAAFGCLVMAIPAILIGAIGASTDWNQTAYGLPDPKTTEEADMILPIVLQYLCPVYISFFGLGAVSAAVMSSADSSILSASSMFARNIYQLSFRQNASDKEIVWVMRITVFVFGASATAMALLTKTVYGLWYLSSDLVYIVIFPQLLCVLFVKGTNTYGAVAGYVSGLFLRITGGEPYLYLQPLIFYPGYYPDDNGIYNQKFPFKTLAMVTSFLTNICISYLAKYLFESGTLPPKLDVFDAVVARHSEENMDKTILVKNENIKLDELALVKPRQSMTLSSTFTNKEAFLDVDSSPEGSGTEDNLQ

[4] = biological target: T4, Polyadenylate-binding protein 1 (Homo sapiens, UniProt P11940); test: MLLE domain peptide-binding blockers, IC50 – biochemical, fluorescence polarization, FITC-PAM2 peptide, dose response (AID 602259); type: functional; conditions: read-out: IC50_Mean
[5] = biological target: T4, Polyadenylate-binding protein 1; test: MLLE binding blockers, Cy5 peptide tracer – biochemical, fluorescence polarization, Cy5-PAM2 peptide, secondary, miRNA deadenylation inhibitor project, dose response (AID 602260); type: functional; conditions: read-out: IC50_Mean
[6] = Trypanosoma cruzi growth suppression in host cells – NIH3T3 host cells, beta-gal luminescence, confirmation (AID 2044); type: functional, cell-based;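 also: intracellular parasites grown in NIH/3T3 mouse fibroblasts as host cells; luminescent beta-galactosidase reporter signal from transgenic T. cruzi replicating inside host cells; inhibitors lower the luminescence signal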
[7] = biological target: T5, DNA repair protein RAD52 homolog (Homo sapiens, UniProt P43351); type: functional, biochemical
T5 sequence (P43351 whole entry): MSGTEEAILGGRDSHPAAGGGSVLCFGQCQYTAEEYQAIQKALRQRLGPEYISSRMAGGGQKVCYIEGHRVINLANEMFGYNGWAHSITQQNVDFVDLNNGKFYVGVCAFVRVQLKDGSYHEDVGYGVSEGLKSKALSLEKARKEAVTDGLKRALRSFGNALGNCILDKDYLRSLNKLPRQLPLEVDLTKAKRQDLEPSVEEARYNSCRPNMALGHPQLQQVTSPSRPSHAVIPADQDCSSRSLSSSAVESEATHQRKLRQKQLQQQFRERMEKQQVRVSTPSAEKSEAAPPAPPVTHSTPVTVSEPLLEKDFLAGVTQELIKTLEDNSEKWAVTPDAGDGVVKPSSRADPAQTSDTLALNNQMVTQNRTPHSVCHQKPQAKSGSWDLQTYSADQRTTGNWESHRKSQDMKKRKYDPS

[8] = NIH3T3 cell viability loss – ATP luminescence, mouse fibroblasts, counter-screen, dose response (AID 2010); type: functional, cell-based;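 also: cells exposed to compound for about 90 hours before reading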
[9] = biological target: T6, Heat shock factor protein 1 (Mus musculus, UniProt P38532); test: decrease of HSF1-responsive luciferase luminescence – cell-based, NIH3T3, dose retest, confirmation (AID 2382); type: functional;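 also: NIH3T3 fibroblasts with HSF1-driven luciferase reporter stressed by proteasome inhibitor MG132; luminescence from HSF1-driven luciferase expression after 8 hours of MG132 stress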
T6 sequence (P38532 whole entry): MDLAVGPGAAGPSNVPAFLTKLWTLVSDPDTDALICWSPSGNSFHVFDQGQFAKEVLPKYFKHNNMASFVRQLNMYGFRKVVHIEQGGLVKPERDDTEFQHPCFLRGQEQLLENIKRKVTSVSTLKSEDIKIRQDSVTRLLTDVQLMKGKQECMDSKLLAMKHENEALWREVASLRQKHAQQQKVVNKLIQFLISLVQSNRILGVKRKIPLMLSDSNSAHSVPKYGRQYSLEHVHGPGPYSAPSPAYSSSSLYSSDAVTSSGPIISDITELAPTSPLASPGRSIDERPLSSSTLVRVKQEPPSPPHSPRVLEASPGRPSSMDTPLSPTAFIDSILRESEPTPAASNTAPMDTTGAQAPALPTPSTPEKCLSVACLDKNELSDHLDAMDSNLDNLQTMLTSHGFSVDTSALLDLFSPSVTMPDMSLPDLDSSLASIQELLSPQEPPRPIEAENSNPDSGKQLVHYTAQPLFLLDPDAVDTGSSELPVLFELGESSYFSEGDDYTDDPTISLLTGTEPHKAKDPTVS

[10] = viability of HCT116 lacking mutant beta-catenin – cell-based, human colon tumor, dose response (AID 1045); type: functional;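 also: HCT116 colon tumor cells with beta catenin knocked out; cells exposed to compound for 60 hours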
[11] = viability of PTEN-deleted HCT116 cells – cell-based, HCT116 PTEN knockout, dose response (AID 1047); type: functional;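 also: HCT116 colon tumor cells with PTEN knocked out; cells exposed to compound for 60 hours before readout; potency for loss of cell viability measured by luminescence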
cells [12] = type: functional
[13] = THP-1 cell cytotoxicity, dose response, cytotoxicity control for non-replicating M. tuberculosis project (AID 489025); type: functional
[14] = system: Streptococcus sp. 'group A'; test: Streptococcus pyogenes SK(-)GAS viability under kanamycin – luminescence, BacTiterGlo, confirmation, counter-screen for streptokinase expression inhibitor project, dose response (AID 1900); type: functional, organism-based
Streptococcus = test: GAS UMAA2166 growth inhibition – luminescence, BacTiterGlo, counter-screen for streptokinase expression inhibitor project, dose response (AID 1915); type: functional, organism-based;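 also: potency for reduction of bacterial viability or growth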
[15] = biological target: Induced myeloid leukemia cell differentiation protein Mcl-1 (Homo sapiens, UniProt Q07820); type: functional
[16] = biological target: T7, Carboxy-terminal domain RNA polymerase II polypeptide A small phosphatase 1 (Homo sapiens, UniProt Q9GZU7); test: CTDSP1 inhibitors, concentration-response, biochemical, absorbance readout, ultra-high-throughput screen actives (AID 540297); type: functional
T7 sequence (Q9GZU7 whole entry): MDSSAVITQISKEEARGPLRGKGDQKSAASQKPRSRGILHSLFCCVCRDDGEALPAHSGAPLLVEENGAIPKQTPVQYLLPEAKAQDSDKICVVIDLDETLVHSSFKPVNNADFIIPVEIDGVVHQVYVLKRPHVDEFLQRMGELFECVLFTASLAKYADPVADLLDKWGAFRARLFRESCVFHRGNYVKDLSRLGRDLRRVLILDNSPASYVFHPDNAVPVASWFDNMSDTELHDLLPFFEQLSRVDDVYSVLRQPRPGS

[17] = Luminescence Cell-Based Dose Confirmation HTS to Identify Inhibitors of Platelet Dense Granule Release. [Related pubchem assays: 1663 (Primary HTS), 1678 (Summary of Project)]; type: functional
[18] = biological target: Luciferin 4-monooxygenase (Photinus pyralis, UniProt P08659); test: inhibition of purified Photinus pyralis luciferase – biochemical, luminescence, dose response (AID 1891)
[19] = biological target: T6, Heat shock factor protein 1; test: enhancement of HSF1-driven luciferase signal – cell-based, NIH3T3, luminescence, dose retest, confirmation (AID 435004); type: functional;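 also: stress induced by proteasome inhibitor MG132 added 30 min after compound; luciferase reporter driven by HSF1 response element in NIH3T3 cells; actives raise luminescence as potentiators of the MG132 stress response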
cells [20] = type: functional, cell-based
cells [21] = type: functional, cell-based; remark: listed apart in the source

T4 sequence (P11940 whole entry, the tested form may be a part): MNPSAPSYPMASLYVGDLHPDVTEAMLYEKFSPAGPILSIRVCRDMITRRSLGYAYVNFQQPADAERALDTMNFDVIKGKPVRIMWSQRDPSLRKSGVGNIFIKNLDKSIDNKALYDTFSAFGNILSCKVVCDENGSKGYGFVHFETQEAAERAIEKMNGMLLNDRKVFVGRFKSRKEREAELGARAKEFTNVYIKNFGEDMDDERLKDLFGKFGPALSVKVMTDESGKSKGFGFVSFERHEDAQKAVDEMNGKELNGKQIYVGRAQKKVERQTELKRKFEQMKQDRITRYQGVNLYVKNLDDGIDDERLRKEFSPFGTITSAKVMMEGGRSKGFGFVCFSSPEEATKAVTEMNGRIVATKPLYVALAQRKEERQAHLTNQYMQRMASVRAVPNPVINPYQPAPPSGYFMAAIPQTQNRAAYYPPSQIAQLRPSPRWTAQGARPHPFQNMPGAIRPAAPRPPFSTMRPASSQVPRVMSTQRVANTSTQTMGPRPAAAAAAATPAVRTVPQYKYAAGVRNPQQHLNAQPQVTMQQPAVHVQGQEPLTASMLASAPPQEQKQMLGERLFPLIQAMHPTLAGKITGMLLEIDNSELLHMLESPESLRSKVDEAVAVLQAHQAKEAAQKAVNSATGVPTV
Induced myeloid leukemia cell differentiation protein Mcl-1, sequence (Q07820 whole entry, the tested form may be a part): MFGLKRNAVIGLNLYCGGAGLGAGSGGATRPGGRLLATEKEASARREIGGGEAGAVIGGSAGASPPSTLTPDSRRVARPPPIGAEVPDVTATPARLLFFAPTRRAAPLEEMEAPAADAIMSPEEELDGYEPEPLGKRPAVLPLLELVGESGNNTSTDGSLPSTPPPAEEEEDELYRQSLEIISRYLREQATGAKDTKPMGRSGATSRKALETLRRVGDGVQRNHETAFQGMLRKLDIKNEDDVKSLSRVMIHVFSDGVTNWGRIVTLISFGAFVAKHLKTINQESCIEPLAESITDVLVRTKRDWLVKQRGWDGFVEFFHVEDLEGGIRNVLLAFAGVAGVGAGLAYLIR
Luciferin 4-monooxygenase, sequence (P08659 whole entry): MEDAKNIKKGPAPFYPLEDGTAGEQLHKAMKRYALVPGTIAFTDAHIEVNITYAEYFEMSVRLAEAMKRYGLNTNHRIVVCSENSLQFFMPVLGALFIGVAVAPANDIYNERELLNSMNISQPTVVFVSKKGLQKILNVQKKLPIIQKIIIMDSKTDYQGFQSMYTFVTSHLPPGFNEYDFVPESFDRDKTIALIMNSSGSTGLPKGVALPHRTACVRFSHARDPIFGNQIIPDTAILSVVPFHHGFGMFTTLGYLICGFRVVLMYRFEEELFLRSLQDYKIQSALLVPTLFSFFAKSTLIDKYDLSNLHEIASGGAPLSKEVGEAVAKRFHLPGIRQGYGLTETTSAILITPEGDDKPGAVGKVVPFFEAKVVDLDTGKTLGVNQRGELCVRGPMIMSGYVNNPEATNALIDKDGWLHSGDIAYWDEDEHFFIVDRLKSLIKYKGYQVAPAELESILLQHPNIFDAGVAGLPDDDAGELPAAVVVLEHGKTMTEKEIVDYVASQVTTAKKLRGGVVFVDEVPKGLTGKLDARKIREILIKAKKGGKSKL

SMILES: CCOC(=O)c1ccccc1NC(=O)c1cn(-c2ccc(OC)cc2)c(=O)c2ccccc12
- CC50 (Vero): > 25 µM (active)

SMILES: COc1ccc(C(=O)NC2(C(F)(F)F)C(=O)N(Cc3ccco3)C3=C2C(=O)CC(C)(C)C3)cc1OC (centres undefined)
- EC50 [1]: > 300 µM (not active)
- EC50 [2]: > 300 µM (not active)

SMILES: Cc1ccc(NC(S)=Nc2ccc3[nH]c(O)nc3c2)cc1C
- IC50 [3]: 14.5 µM (active)
- IC50 [4]: > 66 µM (inactive)
- IC50 [5]: > 66 µM (inactive)

SMILES: COc1cc2c(cc1OC)CN(c1nc(CN3CCCC3)nc3sc(C)c(C)c13)CC2
- EC50 [6]: 0.278 µM (active)
- AC50 [7]: 11.5 µM (active)
- EC50 [8]: > 60 µM (not active)

SMILES: Cc1cc2cc(CNC(=O)COc3ccccc3)ccc2n1C
- IC50 [4]: > 66 µM (inactive)
- IC50 [5]: > 66 µM (inactive)

SMILES: CN1CCN(S(=O)(=O)c2ccc(NC(=S)NC(=O)C(C)(C)C)cc2)CC1
- IC50 [4]: > 66 µM (inactive)
- IC50 [5]: > 66 µM (inactive)

SMILES: CC(C)c1nc(SCC(=O)c2ccc(F)cc2)c2ccccc2n1
- IC50 [4]: > 66 µM (inactive)
- EC50 [9]: > 195 µM (not active)
- IC50 [5]: > 66 µM (inactive)

SMILES: COc1cc(NC(=O)CSc2nnc3ccc(-c4ccncc4)nn23)cc(OC)c1
- EC50 [1]: > 300 µM (not active)
- EC50 [2]: > 300 µM (not active)

SMILES: Cc1cccc(OCC(O)Cn2c(=N)n(CCN3CCCCC3)c3ccccc32)c1 (centres undefined)
- EC50 [10]: 6.6 µM (active)
- CC50 (Vero): 15 µM (active)
- EC50 [11]: 7.39 µM (active)

SMILES: Cc1c(N=C2Nc3cccc4cccc2c34)c(=O)n(-c2ccccc2)n1C
- EC50 [1]: > 300 µM (not active)
- EC50 [2]: > 300 µM (not active)

SMILES: Cc1ccc(S(=O)(=O)Nc2ccccc2F)cc1C(=O)NNC(=O)c1csc(N2CCOCC2)n1
- EC50 [1]: 30.8 µM (active)
- EC50 [2]: 23.3 µM (active)

SMILES: COc1ccc(C(=O)NCC(=O)N/N=C/c2ccc([N+](=O)[O-])o2)cc1OC
- IC50 (cells [12]): 4.08 µM (active)
- CC50 [13]: 24 µM (active)

SMILES: CSc1nc2c(=S)[nH]c(=S)[nH]c2s1
- IC50 [4]: > 66 µM (inactive)
- IC50 [5]: > 66 µM (inactive)

SMILES: COc1ccc(C(=O)NNC(=S)NC(=O)c2ccc(F)cc2)cc1Br
- EC50 [14]: 0.378 µM (active)
- EC50 (Streptococcus): 1.73 µM (active)
- CC50 (Vero): > 25 µM (active)

SMILES: O=C(COc1ccc2ccccc2c1)NNC(=O)c1ccc([N+](=O)[O-])cc1
- IC50 [15]: 7.07 µM (active)
- IC50 [16]: 6.67 µM (active)

SMILES: CN(C)c1ccc(NC(=O)CCCc2ccccc2)cc1
- IC50 [15]: 4.98 µM (not active)

SMILES: O=C(O)CCN1C(=O)/C(=C\c2ccc(-c3nc4ccccc4s3)o2)SC1=S
- IC50 [15]: 1.53 µM (active)

SMILES: Cc1cccc(/N=C/c2sc3ccccc3c2O)n1
- IC50 [15]: 1.57 µM (active)
- EC50 [17]: 22.1 µM (active)
- EC50 [18]: 1.02 µM (active)

SMILES: Cc1ccc(C(=O)Oc2oc(-c3ccccc3)nc2/C=N/c2ccc(N(C)C)cc2)cc1
- EC50 [1]: > 300 µM (not active)
- EC50 [2]: > 300 µM (inconclusive)
- EC50 [19]: 6.88 µM (active)

SMILES: CC(=O)c1ccccc1-c1csc2ncnc(Sc3nnnn3C)c12
- CC50 (Vero): > 25 µM (active)

SMILES: CCOC1(OCC)N=C(N)C2(C#N)C(c3ccc(NC(C)=O)cc3)C12C#N (centres undefined)
- EC50 [1]: 155 µM (active)
- EC50 [2]: 79.4 µM (active)

SMILES: CCOc1ccc(NC(=O)COc2ccccc2)c([N+](=O)[O-])c1
- EC50 (cells [20]): 11.9 µM (active)
- EC50 [1]: > 300 µM (not active)
- EC50 (cells [21]): > 350 µM (not active)
- EC50 [2]: > 300 µM (not active)

From ChEMBL document CHEMBL1201862, “PubChem BioAssay data set” (2004)
